Like-named read-outs stand apart in the source and are kept apart here.
Target: T1, human KISS-receptor (Homo sapiens, UniProt Q969F8)
T1 construct: expressed in transfected cells; host or cells: CHO-k1 cells that also express mitochondrially targeted aequorin, Gα16 and an NFAT-luciferase reporter
Test: NFAT-regulated luciferase reporter gene assay in CHO-k1 cells, agonist activity
Assay type: cell-based

[1] = pEC50 serum, presence of 20% human serum
[2] = absence of human serum, read-out: pEC50 (converted)
[3] = presence of 20% human serum, read-out: pEC50 serum (converted)

T1 sequence (Q969F8 whole entry): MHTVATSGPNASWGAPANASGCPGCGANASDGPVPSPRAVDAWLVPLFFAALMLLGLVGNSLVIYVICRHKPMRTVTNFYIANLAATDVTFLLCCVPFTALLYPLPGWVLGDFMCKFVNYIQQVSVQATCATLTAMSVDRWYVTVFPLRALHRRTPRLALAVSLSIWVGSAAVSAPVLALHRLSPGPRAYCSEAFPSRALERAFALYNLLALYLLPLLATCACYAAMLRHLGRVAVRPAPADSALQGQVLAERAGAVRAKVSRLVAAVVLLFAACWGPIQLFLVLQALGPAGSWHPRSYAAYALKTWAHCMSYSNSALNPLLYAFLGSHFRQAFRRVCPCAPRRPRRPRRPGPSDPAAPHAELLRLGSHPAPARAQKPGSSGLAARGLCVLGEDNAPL
Description: CHO-k1 cells were used that expressed the mitochondrially targeted aequorine and Gα16 (from Euroscreen, Brussels, Belgium), a Nuclear Factor of Activated T-cells-responsive element (NFAT) under the control of a promoter directing the expression of a firefly luciferase reporter gene (pNFAT-TALuc obtained from Clontech, Mountain View, Calif.), and the human GPR54-R Hygro(+)-hGPR54WT c4; MSD). These cells were cultured in Dulbecco's Modified Eagle Medium: Nutrient Mixture F-12 (DMEM/F12) (Invitrogen, Carlsbad, Calif.), supplemented with 10% (vol/vol) filtered bovine serum (Hyclone, Thermo Fisher Scientific, Waltham, Mass.), 100 U/ml penicillin G, 100 μg/ml streptomycin, 400 μg/ml Geneticin and 400 μg/ml Hygromycin (Invitrogen). […] Kisspeptin-10 was used as a standard. […] When the conjugates were tested in the presence of a final percentage of 20% human serum, 10 μl assay medium containing 60% human serum (Sigma-Aldrich, #H4522) was added to the wells. In the absence of human serum, 10 μl of assay medium was added. Cells were harvested and diluted to a concentration of 7.5E5 cells/ml in assay medium without 0.1% BSA. 10 μl of cell solution was added to the compound wells. After incubation for 4 hours in a humidified atmosphere at 5% CO2 and 37° C., the plate was left at room temperature for 30 minutes. Subsequently, 15 μl of Steadylite™ solution (PerkinElmer, Boston, Mass.) was added and the cells, protected from light, were allowed to lyse for 30 min at room temperature. Luminescence, indicated as relative luminescence units (RLU), was measured on an Envision Multilabel reader (PerkinElmer).

Compound	EC50 (pEC50, absence of human serum)	EC50 [1]	EC50 [2]	EC50 [3]
CNC(=N)NCCC[C@H](NC(=O)[C@H](CC(C)C)NC(=O)NNC(=O)[C@H](Cc1ccccc1)NC(=O)[C@@H](NC(=O)[C@H](CC(N)=O)NC(=O)[C@H](Cc1c[nH]c2ccccc12)NC(=O)[C@H](CC(N)=O)NC(=O)[C@@H](Cc1ccc(O)cc1)NC(=O)CSCCC(=O)NCCOCCOCCOCCO[C@H]1[C@H](OC)[C@@H](OC)[C@@H](O[C@H]2[C@H](OC)[C@@H](OC)[C@H](O[C@H]3[C@H](OS(=O)(=O)O)[C@@H](OS(=O)(=O)O)[C@@H](O[C@H]4[C@H](OC)[C@@H](OC)[C@H](O[C@H]5[C@H](OS(=O)(=O)O)[C@@H](OS(=O)(=O)O)[C@@H](OC)O[C@@H]5COS(=O)(=O)O)O[C@H]4C(=O)O)O[C@@H]3COS(=O)(=O)O)O[C@@H]2C(=O)O)O[C@@H]1COS(=O)(=O)O)[C@@H](C)O)C(=O)N[C@@H](Cc1ccccc1)C(N)=O [Conjugate C2]	0.0776 nM	9.12 nM		
CNC(=N)NCCC[C@H](NC(=O)[C@H](CC(C)C)NC(=O)NNC(=O)[C@H](Cc1ccccc1)NC(=O)[C@@H](NC(=O)[C@H](CC(N)=O)NC(=O)[C@H](Cc1c[nH]c2ccccc12)NC(=O)[C@H](CC(N)=O)NC(=O)[C@@H](Cc1ccc(O)cc1)Nc1c(NCCOCCOCCOCCOCC(=O)NCCOCCOCCOCCO[C@H]2[C@H](OC)[C@@H](OC)[C@@H](O[C@H]3[C@H](OC)[C@@H](OC)[C@H](O[C@H]4[C@H](OS(=O)(=O)O)[C@@H](OS(=O)(=O)O)[C@@H](O[C@H]5[C@H](OC)[C@@H](OC)[C@H](O[C@H]6[C@H](OS(=O)(=O)O)[C@@H](OS(=O)(=O)O)[C@@H](OC)O[C@@H]6COS(=O)(=O)O)O[C@H]5C(=O)O)O[C@@H]4COS(=O)(=O)O)O[C@@H]3C(=O)O)O[C@@H]2COS(=O)(=O)O)c(=O)c1=O)[C@@H](C)O)C(=O)N[C@@H](Cc1ccccc1)C(N)=O [Conjugate C3]			0.0776 nM	6.31 nM
CNC(=N)NCCC[C@H](NC(=O)[C@H](CC(C)C)NC(=O)NNC(=O)[C@H](Cc1ccccc1)NC(=O)[C@@H](NC(=O)[C@H](CC(N)=O)NC(=O)[C@H](Cc1c[nH]c2ccccc12)NC(=O)[C@H](CC(N)=O)NC(=O)[C@@H](Cc1ccc(O)cc1)NC(=O)CCCCn1cc(CCC(=O)NCCOCCOCCOCCOCC(=O)NCCOCCOCCOCCO[C@H]2[C@H](OC)[C@@H](OC)[C@@H](O[C@H]3[C@H](OC)[C@@H](OC)[C@H](O[C@H]4[C@H](OS(=O)(=O)O)[C@@H](OS(=O)(=O)O)[C@@H](O[C@H]5[C@H](OC)[C@@H](OC)[C@H](O[C@H]6[C@H](OS(=O)(=O)O)[C@@H](OS(=O)(=O)O)[C@@H](OC)O[C@@H]6COS(=O)(=O)O)O[C@H]5C(=O)O)O[C@@H]4COS(=O)(=O)O)O[C@@H]3C(=O)O)O[C@@H]2COS(=O)(=O)O)nn1)[C@@H](C)O)C(=O)N[C@@H](Cc1ccccc1)C(N)=O [Conjugate C6]	0.148 nM	5.62 nM		
CNC(=N)NCCC[C@H](NC(=O)[C@H](CC(C)C)NC(=O)NNC(=O)[C@H](Cc1ccccc1)NC(=O)[C@@H](NC(=O)[C@H](CC(N)=O)NC(=O)[C@H](Cc1c[nH]c2ccccc12)NC(=O)[C@H](CC(N)=O)NC(=O)[C@H](Cc1ccc(O)cc1)NC(=O)COCCOCCOCCOCCn1cc(CCC(=O)NCCOCCOCCOCCO[C@H]2[C@H](OC)[C@@H](OC)[C@@H](O[C@H]3[C@H](OC)[C@@H](OC)[C@H](O[C@H]4[C@H](OS(=O)(=O)O)[C@@H](OS(=O)(=O)O)[C@@H](O[C@H]5[C@H](OC)[C@@H](OC)[C@H](O[C@H]6[C@H](OS(=O)(=O)O)[C@@H](OS(=O)(=O)O)[C@@H](OC)O[C@@H]6COS(=O)(=O)O)O[C@H]5C(=O)O)O[C@@H]4COS(=O)(=O)O)O[C@@H]3C(=O)O)O[C@@H]2COS(=O)(=O)O)nn1)[C@@H](C)O)C(=O)N[C@@H](Cc1ccccc1)C(N)=O [Conjugate C23]			0.209 nM	2.45 nM
CNC(=N)NCCC[C@H](NC(=O)[C@H](CC(C)C)NC(=O)CNC(=O)[C@H](Cc1ccccc1)NC(=O)[C@@H](NC(=O)[C@H](CC(N)=O)NC(=O)[C@H](CCCCNC(=O)CCOCCOCCOCCOCCn1cc(CCC(=O)NCCOCCOCCOCCO[C@H]2[C@H](OC)[C@@H](OC)[C@@H](O[C@H]3[C@H](OC)[C@@H](OC)[C@H](O[C@H]4[C@H](OS(=O)(=O)O)[C@@H](OS(=O)(=O)O)[C@@H](O[C@H]5[C@H](OC)[C@@H](OC)[C@H](O[C@H]6[C@H](OS(=O)(=O)O)[C@@H](OS(=O)(=O)O)[C@@H](OC)O[C@@H]6COS(=O)(=O)O)O[C@H]5C(=O)O)O[C@@H]4COS(=O)(=O)O)O[C@@H]3C(=O)O)O[C@@H]2COS(=O)(=O)O)nn1)NC(=O)[C@H](CC(N)=O)NC(=O)[C@@H](N)Cc1ccc(O)cc1)[C@@H](C)O)C(=O)N[C@@H](Cc1ccccc1)C(N)=O [Conjugate C28]	0.141 nM	4.27 nM		
CNC(=N)NCCC[C@H](NC(=O)[C@H](CC(C)C)NC(=O)CNC(=O)[C@H](Cc1ccccc1)NC(=O)[C@@H](NC(=O)[C@H](CC(N)=O)NC(=O)[C@H](Cc1ccccc1)NC(=O)[C@H](CC(N)=O)NC(=O)[C@H](Cc1ccc(O)cc1)NC(=O)CCCCn1cc(CCC(=O)NCCOCCOCCOCCO[C@H]2[C@H](OC)[C@@H](OC)[C@@H](O[C@H]3[C@H](OC)[C@@H](OC)[C@H](O[C@H]4[C@H](OS(=O)(=O)O)[C@@H](OS(=O)(=O)O)[C@@H](O[C@H]5[C@H](OC)[C@@H](OC)[C@H](O[C@H]6[C@H](OS(=O)(=O)O)[C@@H](OS(=O)(=O)O)[C@@H](OC)O[C@@H]6COS(=O)(=O)O)O[C@H]5C(=O)O)O[C@@H]4COS(=O)(=O)O)O[C@@H]3C(=O)O)O[C@@H]2COS(=O)(=O)O)nn1)[C@@H](C)O)C(=O)N[C@@H](Cc1ccccc1)C(N)=O [Conjugate C29]			0.407 nM	8.13 nM
CNC(=N)NCCC[C@H](NC(=O)[C@H](CC(C)C)NC(=O)NNC(=O)[C@H](Cc1ccccc1)NC(=O)[C@@H](NC(=O)[C@H](CC(N)=O)NC(=O)[C@@H]1C[C@@H](O)CN1C(=O)[C@@H](Cc1ccc(O)cc1)NC(=O)CCCCn1cc(CCC(=O)NCCOCCOCCOCCO[C@H]2[C@H](OC)[C@@H](OC)[C@@H](O[C@H]3[C@H](OC)[C@@H](OC)[C@H](O[C@H]4[C@H](OS(=O)(=O)O)[C@@H](OS(=O)(=O)O)[C@@H](O[C@H]5[C@H](OC)[C@@H](OC)[C@H](O[C@H]6[C@H](OC)[C@@H](OS(=O)(=O)O)[C@@H](OC)O[C@@H]6COS(=O)(=O)O)O[C@H]5C(=O)O)O[C@@H]4COS(=O)(=O)O)O[C@@H]3C(=O)O)O[C@@H]2COS(=O)(=O)O)nn1)[C@@H](C)O)C(=O)N[C@@H](Cc1c[nH]c2ccccc12)C(N)=O [Conjugate C30]	0.0479 nM	0.195 nM		
CNC(=N)NCCC[C@H](NC(=O)[C@H](CC(C)C)NC(=O)NNC(=O)[C@H](Cc1ccccc1)NC(=O)[C@@H](NC(=O)[C@H](CC(N)=O)NC(=O)[C@@H]1C[C@@H](O)CN1C(=O)[C@@H](Cc1ccc(O)cc1)NC(=O)CCOCCOCCOCCOCCn1cc(CCC(=O)NCCOCCOCCOCCOCC(=O)NCCOCCOCCOCCO[C@H]2[C@H](OC)[C@@H](OC)[C@@H](O[C@H]3[C@H](OC)[C@@H](OC)[C@H](O[C@H]4[C@H](OS(=O)(=O)O)[C@@H](OS(=O)(=O)O)[C@@H](O[C@H]5[C@H](OC)[C@@H](OC)[C@H](O[C@H]6[C@H](OC)[C@@H](OS(=O)(=O)O)[C@@H](OC)O[C@@H]6COS(=O)(=O)O)O[C@H]5C(=O)O)O[C@@H]4COS(=O)(=O)O)O[C@@H]3C(=O)O)O[C@@H]2COS(=O)(=O)O)nn1)[C@@H](C)O)C(=O)N[C@@H](Cc1c[nH]c2ccccc12)C(N)=O [Conjugate C32]			0.151 nM	0.355 nM
CNC(=N)NCCC[C@H](NC(=O)[C@H](CC(C)C)NC(=O)NNC(=O)[C@H](Cc1ccccc1)NC(=O)[C@@H](NC(=O)[C@H](CC(N)=O)NC(=O)[C@@H]1C[C@@H](O)CN1C(=O)[C@@H](Cc1ccc(O)cc1)NC(=O)CCOCCOCCOCCOCCn1cc(CCC(=O)NCCOCCOCCOCCOCC(=O)NCCOCCOCCOCCO[C@H]2[C@H](OC)[C@@H](OC)[C@@H](O[C@H]3[C@H](OC)[C@@H](OC)[C@H](O[C@H]4[C@H](OS(=O)(=O)O)[C@@H](OS(=O)(=O)O)[C@@H](O[C@H]5[C@H](OC)[C@@H](OC)[C@H](O[C@H]6[C@H](OS(=O)(=O)O)[C@@H](OS(=O)(=O)O)[C@@H](OC)O[C@@H]6COS(=O)(=O)O)O[C@H]5C(=O)O)O[C@@H]4COS(=O)(=O)O)O[C@@H]3C(=O)O)O[C@@H]2COS(=O)(=O)O)nn1)[C@@H](C)O)C(=O)N[C@@H](Cc1c[nH]c2ccccc12)C(N)=O [Conjugate C33]			0.0589 nM	0.912 nM
CO[C@H]1O[C@H](COS(=O)(=O)O)[C@@H](O[C@@H]2O[C@@H](C(=O)O)[C@@H](O[C@H]3O[C@H](COS(=O)(=O)O)[C@@H](O[C@@H]4O[C@H](C(=O)O)[C@@H](O[C@H]5O[C@H](COS(=O)(=O)O)[C@@H](OCCOCCOCCOCCNC(=O)CCc6cn(CCCCC(=O)N[C@H](Cc7ccc(O)cc7)C(=O)N7C[C@H](O)C[C@H]7C(=O)N[C@@H](CC(N)=O)C(=O)N[C@H](C(=O)N[C@@H](Cc7ccccc7)C(=O)NNC(=O)N[C@@H](CC(C)C)C(=O)N[C@@H](CCCNC(=N)N)C(=O)N[C@@H](Cc7c[nH]c8ccccc78)C(N)=O)[C@@H](C)O)nn6)[C@H](OC)[C@H]5OC)[C@H](OC)[C@H]4OC)[C@H](OS(=O)(=O)O)[C@H]3OS(=O)(=O)O)[C@H](OC)[C@H]2OC)[C@H](OC)[C@H]1OS(=O)(=O)O [Conjugate C36]			0.0126 nM	0.0912 nM
CO[C@H]1O[C@H](COS(=O)(=O)O)[C@@H](O[C@@H]2O[C@@H](C(=O)O)[C@@H](O[C@H]3O[C@H](COS(=O)(=O)O)[C@@H](O[C@@H]4O[C@H](C(=O)O)[C@@H](O[C@H]5O[C@H](COS(=O)(=O)O)[C@@H](OCCOCCOCCOCCNC(=O)CCc6cn(CCCCC(=O)N[C@H](Cc7ccc(O)cc7)C(=O)N7C[C@H](O)C[C@H]7C(=O)N[C@@H](CC(N)=O)C(=O)N[C@H](C(=O)N[C@@H](Cc7ccccc7)C(=O)NNC(=O)N[C@@H](CC(C)C)C(=O)N[C@@H](CCCNC(=N)N)C(=O)N[C@@H](Cc7c[nH]c8ccccc78)C(N)=O)[C@@H](C)O)nn6)[C@H](OC)[C@H]5OC)[C@H](OC)[C@H]4OC)[C@H](OS(=O)(=O)O)[C@H]3OS(=O)(=O)O)[C@H](OC)[C@H]2OC)[C@H](OS(=O)(=O)O)[C@H]1OS(=O)(=O)O [Conjugate C37]			0.0126 nM	1.15 nM
